Source: the supplement of paper PMC11061612

Key:
[1] = test system: NCI-H1435 (Non-Small Cell Lung Carcinoma); experiment: combination Emax (second highest fraction inhibited in the dose matrix, 72 h); higher = more inhibition; extreme values may be limits of the assay
Procedure, shortened: (§1)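 Bliss excess equals the observed combination effect minus the expected value EA + EB − EA·EB, where EA and EB are the effects of each agent alone. Combination Emax is the second-highest inhibition within the matrix. Inhibition was scaled from CellTiter-Glo 2.0 luminescence, with 0 set by vehicle wells and 1 by blank wells, after 72 hours of two-drug dosing of cells plated in 1536-well plates.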

GCIY (Gastric Carcinoma) [2] = experiment: as above
Procedure, shortened: as §1

NCI-H2452 (Mesothelioma) [3] = experiment: as above
Procedure, shortened: as §1

[4] = test system: NTERA-2-cl-D1 (Other Solid Carcinomas); experiment: as above
Procedure, shortened: as §1

A375 (Melanoma) [5] = experiment: as above
Procedure, shortened: as §1

[6] = test system: L-363 (Plasma Cell Myeloma); experiment: as above
Procedure, shortened: as §1

[7] = test system: NCI-H2009 (Lung Adenocarcinoma); experiment: as above
Procedure, shortened: as §1

C32 (Melanoma) [8] = experiment: as above
Procedure, shortened: as §1

[9] = test system: SW1463 (Colorectal Carcinoma); experiment: as above
Procedure, shortened: as §1

[10] = test system: MDA-MB-175-VII (Breast Carcinoma); experiment: as above
Procedure, shortened: as §1

[11] = test system: NCI-H1648 (Lung Adenocarcinoma); experiment: as above
Procedure, shortened: as §1

[12] = test system: OVKATE (Ovarian Carcinoma); experiment: as above
Procedure, shortened: as §1

MG-63 (Osteosarcoma) [13] = experiment: as above
Procedure, shortened: as §1

SK-MEL-24 (Melanoma) [14] = experiment: as above
Procedure, shortened: as §1

[15] = test system: NCI-H2023 (Non-Small Cell Lung Carcinoma); experiment: as above
Procedure, shortened: as §1

[16] = test system: KNS-62 (Squamous Cell Lung Carcinoma); experiment: as above
Procedure, shortened: as §1

[17] = test system: SBC-3 (Small Cell Lung Carcinoma); experiment: as above
Procedure, shortened: as §1

[18] = test system: RPMI-8402 (T-Lymphoblastic Leukemia); experiment: as above
Procedure, shortened: as §1

[19] = test system: MRK-nu-1 (Breast Carcinoma); experiment: as above
Procedure, shortened: as §1

[20] = test system: NCI-H835 (Other Solid Carcinomas); experiment: as above
Procedure, shortened: as §1

[21] = test system: CAL-85-1 (Breast Carcinoma); experiment: as above
Procedure, shortened: as §1

[22] = test system: COR-L105 (Lung Adenocarcinoma); experiment: as above
Procedure, shortened: as §1

[23] = test system: BC-1 (B-Cell Non-Hodgkin's Lymphoma); experiment: as above
Procedure, shortened: as §1

[24] = test system: NCI-H1435 (Non-Small Cell Lung Carcinoma); experiment: Bliss excess, mean over the matrix (fraction); higher = more synergy
Procedure, shortened: as §1

GCIY (Gastric Carcinoma) [25] = experiment: as above
Procedure, shortened: as §1

NCI-H2452 (Mesothelioma) [26] = experiment: as above
Procedure, shortened: as §1

[27] = test system: NTERA-2-cl-D1 (Other Solid Carcinomas); experiment: as above
Procedure, shortened: as §1

A375 (Melanoma) [28] = experiment: as above
Procedure, shortened: as §1

[29] = test system: L-363 (Plasma Cell Myeloma); experiment: as above
Procedure, shortened: as §1

[30] = test system: NCI-H2009 (Lung Adenocarcinoma); experiment: as above
Procedure, shortened: as §1

C32 (Melanoma) [31] = experiment: as above
Procedure, shortened: as §1

[32] = test system: SW1463 (Colorectal Carcinoma); experiment: as above
Procedure, shortened: as §1

[33] = test system: MDA-MB-175-VII (Breast Carcinoma); experiment: as above
Procedure, shortened: as §1

[34] = test system: NCI-H1648 (Lung Adenocarcinoma); experiment: as above
Procedure, shortened: as §1

[35] = test system: OVKATE (Ovarian Carcinoma); experiment: as above
Procedure, shortened: as §1

MG-63 (Osteosarcoma) [36] = experiment: as above
Procedure, shortened: as §1

SK-MEL-24 (Melanoma) [37] = experiment: as above
Procedure, shortened: as §1

[38] = test system: NCI-H2023 (Non-Small Cell Lung Carcinoma); experiment: as above
Procedure, shortened: as §1

[39] = test system: KNS-62 (Squamous Cell Lung Carcinoma); experiment: as above
Procedure, shortened: as §1

[40] = test system: SBC-3 (Small Cell Lung Carcinoma); experiment: as above
Procedure, shortened: as §1

[41] = test system: RPMI-8402 (T-Lymphoblastic Leukemia); experiment: as above
Procedure, shortened: as §1

[42] = test system: MRK-nu-1 (Breast Carcinoma); experiment: as above
Procedure, shortened: as §1

[43] = test system: NCI-H835 (Other Solid Carcinomas); experiment: as above
Procedure, shortened: as §1

[44] = test system: CAL-85-1 (Breast Carcinoma); experiment: as above
Procedure, shortened: as §1

[45] = test system: COR-L105 (Lung Adenocarcinoma); experiment: as above
Procedure, shortened: as §1

[46] = test system: BC-1 (B-Cell Non-Hodgkin's Lymphoma); experiment: as above
Procedure, shortened: as §1

C[C@@H](Nc1cc(F)cc(F)c1)c1cc(C(=O)N(C)C)cc2c(=O)cc(N3CCOCC3)oc12 [AZD8186] + C1CN(CCC1(C(=O)N[C@@H](CCO)C2=CC=C(C=C2)Cl)N)C3=NC=NC4=C3C=CN4 [AZD5363] (first compound max 10 µM, 7x7, partner max 10 µM)
combination Emax [1]: 0.258 | combination Emax (GCIY (Gastric Carcinoma) [2]): 0.743 | combination Emax (NCI-H2452 (Mesothelioma) [3]): 0.336 | combination Emax [4]: 0.348 | combination Emax (A375 (Melanoma) [5]): 0.232 | combination Emax [6]: 0.318 | combination Emax [7]: 0.26 | combination Emax (C32 (Melanoma) [8]): 0.436 | combination Emax [9]: 0.274 | combination Emax [10]: 0.573 | combination Emax [11]: 0.707 | combination Emax [12]: 0.252 | combination Emax (MG-63 (Osteosarcoma) [13]): 0.694 | combination Emax (SK-MEL-24 (Melanoma) [14]): 0.508 | combination Emax [15]: 0.333 | combination Emax [16]: 0.533 | combination Emax [17]: 0.446 | combination Emax [18]: 0.588 | combination Emax [19]: 0.305 | combination Emax [20]: 0.525 | combination Emax [21]: 0.214 | combination Emax [22]: 0.41 | combination Emax [23]: 0.577 | Bliss excess [24]: 0.0283 | Bliss excess (GCIY (Gastric Carcinoma) [25]): -0.012 | Bliss excess (NCI-H2452 (Mesothelioma) [26]): -0.0466 | Bliss excess [27]: -0.0573 | Bliss excess (A375 (Melanoma) [28]): 0.011 | Bliss excess [29]: -0.0138 | Bliss excess [30]: -0.034 | Bliss excess (C32 (Melanoma) [31]): -0.0235 | Bliss excess [32]: -0.016 | Bliss excess [33]: -0.0108 | Bliss excess [34]: -0.0377 | Bliss excess [35]: -0.0281 | Bliss excess (MG-63 (Osteosarcoma) [36]): -0.0376 | Bliss excess (SK-MEL-24 (Melanoma) [37]): -0.0455 | Bliss excess [38]: -0.0589 | Bliss excess [39]: -0.0302 | Bliss excess [40]: 0.0272 | Bliss excess [41]: -0.0783 | Bliss excess [42]: -0.0418 | Bliss excess [43]: -0.0164 | Bliss excess [44]: -0.0285 | Bliss excess [45]: 0.0189 | Bliss excess [46]: 0.0374

CS(=O)(=O)CCNCc1ccc(-c2ccc3ncnc(Nc4ccc(OCc5cccc(F)c5)c(Cl)c4)c3c2)o1 [Lapatinib] + Cn1cnc2c(F)c(Nc3ccc(Br)cc3Cl)c(C(=O)NOCCO)cc21 [Selumetinib] (first compound max 10 µM, 7x7, partner max 10 µM)
combination Emax [1]: 0.559 | combination Emax (GCIY (Gastric Carcinoma) [2]): 0.543 | combination Emax (NCI-H2452 (Mesothelioma) [3]): 0.466 | combination Emax [4]: 0.339 | combination Emax (A375 (Melanoma) [5]): 0.736 | combination Emax [6]: 0.104 | combination Emax [7]: 0.53 | combination Emax (C32 (Melanoma) [8]): 0.935 | combination Emax [9]: 0.868 | combination Emax [10]: 0.993 | combination Emax [11]: 0.764 | combination Emax [12]: 0.31 | combination Emax (MG-63 (Osteosarcoma) [13]): 0.453 | combination Emax (SK-MEL-24 (Melanoma) [14]): 0.853 | combination Emax [15]: 0.297 | combination Emax [16]: 0.626 | combination Emax [17]: 0.321 | combination Emax [18]: 0.924 | combination Emax [19]: 0.441 | combination Emax [20]: 0.257 | combination Emax [21]: 0.85 | combination Emax [22]: 0.682 | combination Emax [23]: 0.787 | Bliss excess [24]: 0.0172 | Bliss excess (GCIY (Gastric Carcinoma) [25]): -0.0067 | Bliss excess (NCI-H2452 (Mesothelioma) [26]): -0.0363 | Bliss excess [27]: -0.0125 | Bliss excess (A375 (Melanoma) [28]): -0.0348 | Bliss excess [29]: -0.0027 | Bliss excess [30]: -0.0531 | Bliss excess (C32 (Melanoma) [31]): -0.0418 | Bliss excess [32]: 0.0681 | Bliss excess [33]: 0.0577 | Bliss excess [34]: 0.116 | Bliss excess [35]: -0.0514 | Bliss excess (MG-63 (Osteosarcoma) [36]): -0.0863 | Bliss excess (SK-MEL-24 (Melanoma) [37]): 0.0129 | Bliss excess [38]: -0.0391 | Bliss excess [39]: 0.0708 | Bliss excess [40]: -0.0109 | Bliss excess [41]: -0.031 | Bliss excess [42]: 0.0764 | Bliss excess [43]: -0.0013 | Bliss excess [44]: 0.0396 | Bliss excess [45]: 0.0224 | Bliss excess [46]: 0.0547
